Literature values, collected in patent US5627200A, “β3 -Adrenoceptor agonists and antagonists for the treatment of intestinal motility disorders, depression, prostate disease and dyslipidemia” (Pfizer Inc, priority 1994, dated 1997).

What was measured:
[1] = system: genetic animal models of obesity and diabetes
[2] = system: rodent models of depression; conditions: reported in Europ. J. Pharm., 219, 193 (1992)

Compound	plasma fatty acids [1]	plasma triglycerides [1]	activity in rodent models of depression [2]
COC(=O)COc1ccc(CC(C)NCC(O)c2cccc(Cl)c2)cc1 (stereo not drawn) [N-[2-(4-carbomethoxymethoxyphenyl)-1-methylethyl]-2-hydroxy-2-(3-chlorophenyl)ethanamine]	reduces	reduces	–
CCOC(=O)COc1ccc2c(c1)C[C@@H](NC[C@H](O)c1cccc(Cl)c1)CC2.Cl [N-[(2S)-7-carbethoxymethoxy-1,2,3,4-tetrahydronaphth-2-yl]-(2R)-2-hydroxy-2-(3-chlorophenyl)-ethanamine hydrochloride]	–	–	demonstrate activity in rodent models of depression
